Data from ChEMBL document CHEMBL6092174, “Synthesis and anti-influenza virus activity of substituted dibenzoxepine-based baloxavir derivatives” (Eur J Med Chem, 2024).

Tested on: Influenza A virus
Assay: Antiviral activity against Influenza A virus NA-H274Y (A/PR/8/34) infected in dog MDCK cells assessed as reduction in cytopathic effect incubated for 2 days
Type: functional, organism-based

Structure (SMILES)	EC50 [nM]
O=C1c2c(O)c(=O)ccn2N([C@@H]2c3ccccc3OCc3c(Cl)cccc32)[C@@H]2COCCN12	20.5
O=C1c2c(O)c(=O)ccn2N([C@H]2c3ccc(F)cc3COc3ccccc32)[C@@H]2COCCN12	4.2
O=C1c2c(O)c(=O)ccn2N([C@@H]2c3ccccc3SCc3c2ccc(F)c3F)[C@@H]2COCCN12 [BALOXAVIR]	2.18
